In ChEMBL document CHEMBL5325410, “Ras superfamily GTPase activating proteins in cancer: Potential therapeutic targets?” (Eur J Med Chem, 2023):

Experiments:
MDA-MB-231 = test: Inhibition of cell migration in human MDA-MB-231 cells at 2.5 uM measured after 12 hrs by transwell migration assay; assay type: functional
[1] = target: T1, ADP-ribosylation factor GTPase-activating protein 1 (Homo sapiens, UniProt Q8N6T3); test: Inhibition of ARFGAP1 (unknown origin) at 10 uM relative to control
[2] = target: T1, ADP-ribosylation factor GTPase-activating protein 1; test: Inhibition of ARFGAP1 (unknown origin)

T1 sequence (Q8N6T3 whole entry): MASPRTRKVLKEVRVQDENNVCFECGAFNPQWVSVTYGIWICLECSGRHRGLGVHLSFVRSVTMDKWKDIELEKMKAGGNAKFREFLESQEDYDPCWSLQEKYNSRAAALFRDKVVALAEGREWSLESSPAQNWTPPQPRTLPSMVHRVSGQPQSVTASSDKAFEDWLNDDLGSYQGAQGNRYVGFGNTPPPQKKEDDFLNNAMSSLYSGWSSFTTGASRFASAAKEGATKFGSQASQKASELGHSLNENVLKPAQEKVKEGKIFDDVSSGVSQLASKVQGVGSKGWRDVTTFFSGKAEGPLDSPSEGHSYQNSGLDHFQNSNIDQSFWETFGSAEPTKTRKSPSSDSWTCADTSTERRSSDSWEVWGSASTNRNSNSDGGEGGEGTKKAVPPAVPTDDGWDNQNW

SMILES: OC[C@H](Cc1ccccc1)Nc1nc(Oc2ccc3c(c2)CCC3)nc2c1ncn2Cc1ccc(-c2ccccc2)cc1
- inhibition at 2.5 µM (MDA-MB-231): 80%
- inhibition [1]: 84%
- EC50 [2]: 500 nM

SMILES: FC(F)(F)c1cccc(Oc2nc(NCCc3cccc4ccccc34)c3ncn(Cc4ccc(-c5ccccc5)cc4)c3n2)c1
- inhibition [1]: 67%
